From US10966969B2, “Therapeutic agent for liver diseases” (APTABIO THERAPEUTICS INC., priority 2017, dated 2021) come the findings set out here.

For test [1], the system named is fatty liver model animal induced by high fat diet. The test can be described thus: Test using fatty liver model animal induced by high fat diet. As to conditions: high fat diet rats, daily single dose of 60 mg/kg, compared to the vehicle group and the obeticholic acid group. In kind it is in vivo. How it is done:
As subject animals, 6-week-old rats were purchased. All rats were kept under standard conditions. When the rats became 12 weeks old after being bred for about 6 weeks, test substances were administered to the rats. Test groups were set based on ALT level in blood collected at 5 weeks. For 5 weeks after the rats reached 12 weeks old, test substances were separately administered to a vehicle administration group, an obeticholic acid administration group as a positive control group, and a 3-phenyl-4-normalpropyl-1-(pyridin-2-yl)-1H-pyrazol-5-ol hydrochloride administration group. Blood was collected one day before the start of the experiment (from jugular vein), and blood samples were collected on the 5 weeks, 8 weeks and on the day of the autopsy (24 hours after the fasting, total 4 times). In addition, plasma of each blood sample collected on the 5th week, 8th week and the day of the autopsy were analyzed. After completion of the test, the animals were anesthetized, liver tissues were taken out from respective animals and blood for inspection was collected. The liver tissues were weighed and imaged. The liver tissues were immobilized in 10% buffered neutral formalin. The immobilized tissues were cut to a predetermined thickness, subjected to a general tissue treatment process, embedded in paraffin and produced into tissue sections with a size of 4 to 5 μm, and the tissue sections were subjected to Hematoxylin & Eosin (H&E stain) as a general staining method and were histopatho-logically observed. In addition to H&E staining, Oil red-o staining was conducted in order to observe lipids induced by formation of fatty liver, levels of produced lipids were measured and an effect of drug administration on reduction of lipids was predicted. The liver tissues were stained with an Oil red o working solution, to evaluate levels of produced lipids. Blood was collected and centrifuged at 3000 rpm at 4° C. for 10 min. The serum of the upper layer was taken and the levels of alkaline phosphate (ALP), aspartate transminase (AST) and alanine transaminase (ALT) were measured using an automatic blood biochemical analyzer (AU480, Beckman 30-18 Coulter, USA) and the results were analyzed. A ratio of liver weight to body weight was measured and the amount of triglyceride in liver tissues was measured to expect effects of drug administration on reduction of relative liver weight and triglyceride. The liver tissues were ground with a homogenizer, chloroform and methanol (2:1) were added thereto, the resulting mixture was centrifuged at 3,000 rpm and at 4° C. for 10 minutes and the organic solvent layer containing lipids was separated. The organic solvent in the separated lipid layer was removed in the dryer at 50° C. for 12 hours. […]

The test system of test [2] is fatty liver model animal induced by diabetic db/db mice. The test can be described thus: Test using fatty liver model animal induced by diabetic db/db mice. Format: in vivo, diabetic db/db mice (C57BLKS/J-leprdb/leprdb). Particulars: daily single dose of 60 mg/kg. How it is done:
As subject animals, 6-week-old male diabetic db/db mice (C57BLKS/J-leprdb/leprdb) were purchased from Jackson Laboratory (Bar Harbor, Me., USA). The mice were kept under standard conditions. When the mice became 8 weeks old after being bred for about 2 weeks, test substances were administered to the mice. For 12 weeks after the mice became 8 weeks old, test substances were separately administered to a vehicle administration group and a 3-phenyl-4-normalpropyl-1-(pyridin-2-yl)-1H-pyrazol-5-ol hydrochloride administration group. A normal control group was used as a negative control. After completion of the test, the animals were anesthetized, liver tissues were taken out from respective animals and blood for inspection was collected. The liver tissues were weighed and imaged. The liver tissues were immobilized in 10% buffered neutral formalin. The immobilized tissues were cut to a predetermined thickness, subjected to a general tissue treatment process, embedded in paraffin and produced into tissue sections with a size of 4 to 5 μm, and the tissue sections were subjected to Hematoxylin & Eosin (H&E stain) as a general staining method and were histopatho-logically observed. In addition to H&E staining, Oil red-O staining was conducted in order to observe lipids induced by formation of fatty liver, levels of produced lipids were measured and an effect of drug administration on reduction of lipids was predicted. The liver tissues were stained with an Oil red 0 working solution, to evaluate levels of produced lipids. Blood was collected and centrifuged at 3000 rpm at 4° C. for 10 min. The serum of the upper layer was taken and the levels of triglyceride (TG) and LDL-cholesterol (LDL-C) were measured using an automatic blood biochemical analyzer (AU480, Beckman 30-18 Coulter, USA) and the results were analyzed. A ratio of liver weight to body weight was measured and the amount of triglyceride in liver tissues was measured to expect effects of drug administration on reduction of relative liver weight and triglyceride. The liver tissues were ground with a homogenizer, chloroform and methanol (2:1) were added thereto, the resulting mixture was centrifuged at 3,000 rpm and at 4° C. for 10 minutes and the organic solvent layer containing lipids was separated. The organic solvent in the separated lipid layer was removed in the dryer at 50° C. for 12 hours. The lipid-only tubes were immersed in 100% EtOH, and then suspended in a lipid-free tube and then assayed with a kit reagent for measuring triglyceride (AM157S-K, Asan, Korea).

For test [3], the system named is fatty liver model animal induced by MCD (methionine/choline deficient) diet. In words: Test using fatty liver model animal induced by MCD (methionine/choline deficient) diet. In kind it is in vivo, Sprague Dawley (SD) rats. Particulars: MCD diet rats, daily single dose of 60 mg/kg, compared to the vehicle group. How it is done: As subject animals, 6-week-old male Sprague Dawley (SD) rats were purchased. All rats were kept under standard conditions. When the rats became 12 weeks old after being bred for about 6 weeks, test substances were administered to the rats. Test groups were set based on ALT level in blood collected at 5 weeks. For 5 weeks after the rats became 12 weeks old, test substances were separately administered to a vehicle administration group and a 3-phenyl-4-n-propyl-1-(pyridin-2-yl)-1H-pyrazol-5-ol hydrochloride administration group. A normal control group was used as a negative control. Blood was collected one day before the start of the experiment (from the jugular vein), and blood samples were collected on the 3 weeks, 5 weeks, 7 weeks, 9 weeks and on the day of the autopsy (24 hours after the fasting, total six times). In addition, plasma of each blood sample collected on the 5 weeks, 7 weeks, 9 weeks and on the day of the autopsy were analyzed. After completion of the test, the animals were anesthetized, liver tissues were taken out from respective animals and blood for inspection was collected. The liver tissues were weighed and imaged. The liver tissues were immobilized in 10% buffered neutral formalin. […] In addition to H&E staining, Oil red-O staining was conducted in order to observe lipids induced by formation of fatty liver, levels of produced lipids were measured and an effect of drug administration on reduction of lipids was predicted. […] The serum of the upper layer was taken and the level of alanine transaminase (ALT) was measured using an automatic blood biochemical analyzer (AU480, Beckman 30-18 Coulter, USA) and the results were analyzed. A ratio of liver weight to body weight was measured and the amount of triglyceride in liver tissues was measured to expect effects of drug administration on reduction of relative liver weight and triglyceride. […] Results are analyzed.

Setting [4] is: compared to the vehicle group, FIG. 6C.

Molecules are shown by their SMILES.

For the compound `CCCc1c(-c2ccccc2)nn(-c2ccccn2)c1O.Cl` [compound 1, 3-phenyl-4-n-propyl-1-(pyridin-2-yl)-1H-pyrazol-5-ol hydrochloride], in test [1] (FIG. 4A), the relative liver weight result was “significantly reduced”. Besides, in test [1] (FIG. 4B-4D), the “level of ALP in blood” value is listed as “considerably decreased”, the “level of ALT in blood” value was “considerably decreased” and the “level of AST in blood” value is “considerably decreased”. In test [2] (FIG. 6A and 6B), the “level of LDL in blood” value is “decreasing levels”, the “level of LDL in liver tissues” value is “decreasing levels”, the “level of TG in blood” value is listed as “decreasing levels” and the “level of TG in liver tissues” value is “decreasing levels”. The “liver tissue damage and hepatic fibrosis (TGF-β and Type IV collagen staining in liver tissues)” value in test [2] (compared to the vehicle group, FIG. 5) is “significantly reduced”. Also, in test [2] (setting [4]), the “mRNA expression of MCP-1 in liver tissues” value is listed as “considerably reduced”, the “mRNA expression of PAI-1 in liver tissues” value was “considerably reduced”, the “mRNA expression of TGF-β in liver tissues” value is recorded as “considerably reduced” and the “mRNA expression of collagen I in liver tissues” value is reported as “considerably reduced”. Besides, in test [2] (setting [4]), the “mRNA expression of collagen IV in liver tissues” value is on record as “considerably reduced”. Also, the “level of ALT in the blood” value in test [3] (FIG. 1) is “significantly reduced”. Besides, in test [3] (FIG. 2), the “inflammation in liver tissues (staining of α-SMA, IL-1β and TNF-α)” value is reported as “considerably reduced”. Moreover, the “liver tissue damage and hepatic fibrosis (TGF-β, H&E staining, Oil red O staining)” value in test [3] (FIG. 3) is on record as “reduced”.
